# Measurements published in patent publication US20260138958A1, “SUBSTITUTED N-PHENYLURACILS AND SALTS THEREOF, AND USE THEREOF AS HERBICIDAL ACTIVE SUBSTANCES” (Bayer Aktiengesellschaft, priority 2022, published 2026).
# Columns and labels:
# Assay type in all cases: in vivo
# [1] = system: Abutilon theophrasti (ABUTH); experiment: Post-emergence herbicidal action, greenhouse pot test
# Procedure: (§1) Seeds of monocotyledonous and dicotyledonous weeds and crop plants were placed in sandy loam in plastic or wood-fibre pots, covered with soil and cultivated in a greenhouse under controlled growth conditions. 2 to 3 weeks after sowing, the test plants were treated at the one-leaf stage. The compounds of the invention, formulated in the form of wettable powders (WP) or as emulsion concentrates (EC), were then sprayed onto the green parts of the plants as aqueous suspension or emulsion with addition of 0.5% additive at a water application rate of 600 l/ha (converted). After the test plants had been kept in the greenhouse under optimum growth conditions for about 3 weeks, the activity of the preparations was rated visually in comparison to untreated controls. For example, 100% activity=the plants have died, 0% activity=like control plants.
# [2] = system: Alopecurus myosuroides (ALOMY); experiment: as above
# Procedure: as §1
# [3] = system: Amaranthus retroflexus (AMARE); experiment: as above
# Procedure: as §1
# Bassia scoparia (KCHSC) = experiment: as above
# Procedure: as §1
# [4] = system: Digitaria sanguinalis (DIGSA); experiment: as above
# Procedure: as §1
# [5] = system: Echinochloa crus-galli (ECHCG); experiment: as above
# Procedure: as §1
# Lolium rigidum (LOLRI) = experiment: as above
# Procedure: as §1
# [6] = system: Pharbitis purpurea (PHBPU); experiment: as above
# Procedure: as §1
# [7] = system: Polygonum convolvulus (POLCO); experiment: as above
# Procedure: as §1
# Setaria viridis (SETVI) = experiment: as above
# Procedure: as §1
# [8] = system: Tripleurospermum inodorum (MATIN); experiment: as above
# Procedure: as §1
# Veronica persica (VERPE) = experiment: as above
# Procedure: as §1
# Viola tricolor (VIOTR) = experiment: as above
# Procedure: as §1
# [9] = system: Triticum aestivum (TRZAS); experiment: Post-emergence crop plant compatibility, greenhouse pot test; conditions: crop plant, post-emergence, 1.25 g/ha
# Procedure: as §1
# The observed effects on selected crop plants are reported here in comparison to the untreated controls (values in %).
SMILES,Post-emergence effect at 5 g/ha against ABUTH in % [1],Post-emergence effect at 20 g/ha against ABUTH in % [1],Post-emergence effect at 20 g/ha against ALOMY in % [2],Post-emergence effect at 1.25 g/ha against AMARE in % [3],Post-emergence effect at 5 g/ha against AMARE in % [3],Post-emergence effect at 20 g/ha against AMARE in % [3],Post-emergence effect at 1.25 g/ha against KCHSC in % (Bassia scoparia (KCHSC)),Post-emergence effect at 5 g/ha against KCHSC in % (Bassia scoparia (KCHSC)),Post-emergence effect at 20 g/ha against KCHSC in % (Bassia scoparia (KCHSC)),Post-emergence effect at 5 g/ha against DIGSA in % [4],Post-emergence effect at 20 g/ha against DIGSA in % [4],Post-emergence effect at 5 g/ha against ECHCG in % [5],Post-emergence effect at 20 g/ha against ECHCG in % [5],Post-emergence effect at 20 g/ha against LOLRI in % (Lolium rigidum (LOLRI)),Post-emergence effect at 5 g/ha against PHBPU in % [6],Post-emergence effect at 20 g/ha against PHBPU in % [6],Post-emergence effect at 20 g/ha against POLCO in % [7],Post-emergence effect at 1.25 g/ha against SETVI in % (Setaria viridis (SETVI)),Post-emergence effect at 5 g/ha against SETVI in % (Setaria viridis (SETVI)),Post-emergence effect at 20 g/ha against SETVI in % (Setaria viridis (SETVI)),further results
Cn1c(C(F)(F)F)cc(=O)n(-c2cc(Oc3ccccc3OCC(=O)OC(C#N)C3CC3)c(Cl)cc2F)c1=O (centres unmarked) [I.7-4],100%,100%,100%,100%,100%,100%,100%,100%,100%,100%,100%,100%,100%,100%,100%,100%,100%,100%,100%,100%,Post-emergence effect at 1.25 g/ha against ABUTH in % [1]: 100%; Post-emergence effect at 5 g/ha against ALOMY in % [2]: 80%; Post-emergence effect at 1.25 g/ha against PHBPU in % [6]: 80%; Post-emergence effect at 5 g/ha against POLCO in % [7]: 100%; Post-emergence effect at 5 g/ha against MATIN in % [8]: 100%; Post-emergence effect at 20 g/ha against MATIN in % [8]: 100%; Post-emergence effect at 1.25 g/ha against VERPE in % (Veronica persica (VERPE)): 100%; Post-emergence effect at 5 g/ha against VERPE in % (Veronica persica (VERPE)): 100%; Post-emergence effect at 20 g/ha against VERPE in % (Veronica persica (VERPE)): 100%; Post-emergence effect at 1.25 g/ha against VIOTR in % (Viola tricolor (VIOTR)): 100%; Post-emergence effect at 5 g/ha against VIOTR in % (Viola tricolor (VIOTR)): 100%; Post-emergence effect at 20 g/ha against VIOTR in % (Viola tricolor (VIOTR)): 100%; Post-emergence effect at 1.25 g/ha against TRZAS in % [9]: 20%
Cn1c(C(F)(F)F)cc(=O)n(-c2cc(Oc3ccccc3OCC(=O)OCC3(F)CC3)c(Cl)cc2F)c1=O [I.7-6],100%,100%,100%,100%,100%,100%,100%,100%,100%,100%,100%,100%,100%,80%,100%,100%,100%,100%,100%,100%,Post-emergence effect at 1.25 g/ha against ABUTH in % [1]: 100%; Post-emergence effect at 1.25 g/ha against ALOMY in % ([2]; 1.25 g/ha): 80%; Post-emergence effect at 5 g/ha against ALOMY in % [2]: 100%; Post-emergence effect at 1.25 g/ha against DIGSA in % [4]: 100%; Post-emergence effect at 5 g/ha against POLCO in % [7]: 100%; Post-emergence effect at 20 g/ha against MATIN in % [8]: 100%; Post-emergence effect at 1.25 g/ha against VERPE in % (Veronica persica (VERPE)): 100%; Post-emergence effect at 5 g/ha against VERPE in % (Veronica persica (VERPE)): 100%; Post-emergence effect at 20 g/ha against VERPE in % (Veronica persica (VERPE)): 100%; Post-emergence effect at 1.25 g/ha against VIOTR in % (Viola tricolor (VIOTR)): 100%; Post-emergence effect at 5 g/ha against VIOTR in % (Viola tricolor (VIOTR)): 100%; Post-emergence effect at 20 g/ha against VIOTR in % (Viola tricolor (VIOTR)): 100%; Post-emergence effect at 1.25 g/ha against TRZAS in % [9]: 20%
Cn1c(C(F)(F)F)cc(=O)n(-c2cc(Oc3ccccc3OCC(=O)OCC3(C#N)CC3)c(Cl)cc2F)c1=O [I.7-7],100%,100%,100%,100%,100%,100%,100%,100%,100%,100%,100%,100%,100%,100%,100%,100%,100%,100%,100%,100%,Post-emergence effect at 5 g/ha against ALOMY in % [2]: 80%; Post-emergence effect at 1.25 g/ha against PHBPU in % [6]: 100%; Post-emergence effect at 5 g/ha against POLCO in % [7]: 100%; Post-emergence effect at 5 g/ha against MATIN in % [8]: 100%; Post-emergence effect at 20 g/ha against MATIN in % [8]: 100%; Post-emergence effect at 1.25 g/ha against VERPE in % (Veronica persica (VERPE)): 100%; Post-emergence effect at 5 g/ha against VERPE in % (Veronica persica (VERPE)): 100%; Post-emergence effect at 20 g/ha against VERPE in % (Veronica persica (VERPE)): 100%; Post-emergence effect at 1.25 g/ha against VIOTR in % (Viola tricolor (VIOTR)): 100%; Post-emergence effect at 5 g/ha against VIOTR in % (Viola tricolor (VIOTR)): 100%; Post-emergence effect at 20 g/ha against VIOTR in % (Viola tricolor (VIOTR)): 100%; Post-emergence effect at 1.25 g/ha against TRZAS in % [9]: 10%
Cn1c(C(F)(F)F)cc(=O)n(-c2cc(Oc3ccccc3OCC(=O)OCC3CC3(F)F)c(Cl)cc2F)c1=O (centres unmarked) [I.7-8],100%,100%,100%,100%,100%,100%,100%,100%,100%,100%,100%,100%,100%,80%,100%,100%,100%,100%,100%,100%,Post-emergence effect at 1.25 g/ha against ABUTH in % [1]: 100%; Post-emergence effect at 5 g/ha against ALOMY in % [2]: 80%; Post-emergence effect at 1.25 g/ha against DIGSA in % [4]: 100%; Post-emergence effect at 1.25 g/ha against PHBPU in % [6]: 80%; Post-emergence effect at 5 g/ha against POLCO in % [7]: 100%; Post-emergence effect at 5 g/ha against MATIN in % [8]: 100%; Post-emergence effect at 20 g/ha against MATIN in % [8]: 100%; Post-emergence effect at 1.25 g/ha against VERPE in % (Veronica persica (VERPE)): 100%; Post-emergence effect at 5 g/ha against VERPE in % (Veronica persica (VERPE)): 100%; Post-emergence effect at 20 g/ha against VERPE in % (Veronica persica (VERPE)): 100%; Post-emergence effect at 1.25 g/ha against VIOTR in % (Viola tricolor (VIOTR)): 100%; Post-emergence effect at 5 g/ha against VIOTR in % (Viola tricolor (VIOTR)): 100%; Post-emergence effect at 20 g/ha against VIOTR in % (Viola tricolor (VIOTR)): 100%; Post-emergence effect at 1.25 g/ha against TRZAS in % [9]: 20%
Cn1c(C(F)(F)F)cc(=O)n(-c2cc(Oc3ccccc3OCC(=O)OCC3CC3(C)C)c(Cl)cc2F)c1=O (centres unmarked) [I.7-9],100%,100%,100%,100%,100%,100%,90%,100%,100%,100%,100%,100%,100%,90%,100%,100%,100%,100%,100%,100%,Post-emergence effect at 1.25 g/ha against ABUTH in % [1]: 100%; Post-emergence effect at 1.25 g/ha against DIGSA in % [4]: 100%; Post-emergence effect at 1.25 g/ha against ECHCG in % ([5]; 1.25 g/ha): 80%; Post-emergence effect at 1.25 g/ha against PHBPU in % [6]: 100%; Post-emergence effect at 20 g/ha against MATIN in % [8]: 100%; Post-emergence effect at 1.25 g/ha against VERPE in % (Veronica persica (VERPE)): 90%; Post-emergence effect at 5 g/ha against VERPE in % (Veronica persica (VERPE)): 100%; Post-emergence effect at 20 g/ha against VERPE in % (Veronica persica (VERPE)): 100%; Post-emergence effect at 1.25 g/ha against VIOTR in % (Viola tricolor (VIOTR)): 100%; Post-emergence effect at 5 g/ha against VIOTR in % (Viola tricolor (VIOTR)): 100%; Post-emergence effect at 20 g/ha against VIOTR in % (Viola tricolor (VIOTR)): 100%; Post-emergence effect at 1.25 g/ha against TRZAS in % [9]: 20%
